# Measurements published in US20050112573A1, “Method of detecting toxic substance” (priority 2001, published 2005).
# Test system: yeast genes (level of expressed mRNA)
# Experiment: DNA chip analysis of expressed mRNA of yeast genes after 2 h culture with a toxic chemical substance
# Format: cell-based, Saccharomyces cerevisiae S288C
# Conditions: for The level of expressed mRNA in the presence of chemical substance/ (ratio to absence of chemical substance): stress protein genes, DNA chip
# Method: Yeast (Saccharomyces cerevtisiae S288C (α SUC2mal mel gap2 CUP1)) were cultured at 25° C. on YPD medium (yeast extract 1%, polypepton 2%, glucose 2%). One of toxic chemical substances was added to the cell at logarithmic growth phase, and the cell was further cultured for two hours. Cell was cultured without any chemical substance in the same condition, and was used as control. Concentrations of the chemical substances were defined to inhibit the growth of the yeast but not lead to death.
# After the completion of cultivation, the culture was centrifuged to collect the cells. To the cells, sodium acetate buffer (50 mM sodium acetate, 10 mM EDTA, 1% SDS) was added, and the mixture was shaken at 65° C. for five minutes, followed by returning to room temperature, and obtaining the supernatant, which procedure was repeated two times. To the supernatant, ½ amount of a solution of phenol/chloroform was added, and the mixture was centrifuged to give a supernatant, which was added with an equal amount of chloroform, and the mixture was centrifuged to give a supernatant. To the supernatant, an equal amount of isopropanol containing 0.3 M sodium acetate was added, and the mixture was allowed to stand at room temperature for 30 minutes, after which the mixture was centrifuged to give a sediment of the whole RNAs. Seventy % ethanol was added to the sediment, and the mixture was again centrifuged to give a sediment, which was then dried and dissolved in water. mRNA was isolated from the whole RNAs as followings. In view of the fact that a poly A chain is attached to the 3′ terminus of mRNA, a polynucleotide having a poly T structure which was immobilized on the surface of latex beads was used to trap the mRNA, and then the mRNA was washed and eluted with spine column (Oligotex-dT30<Super>mRNA Purification Kit, Takara). Reverse transcription of the mRNA was conducted with a reverse transcriptase (Super Script II Reverse Transcriptase; catalogue No. 18064-014, GibcoBRL) using fluorescence-labeled nucleotides to give cDNAs that were introduced with Cy3-dUTP or Cy5-dUTP during the reverse transcription.
# The labeled cDNAs were dissolved in TE buffer (10 mM Tris-HCl/1 mM EDTA, pH8.0), and the solution was dropped on the DNA chip containing the whole genes of yeast (DNA Chip Research Inc. Japan) so that the cDNAs were hybridized on the DNA chip at 65° C. for over 12 hours. The fluoresces intensity of the DNA chip was read with a scanner, and the ratio relative to the fluorescence intensity resulting from the absence of chemical substance was estimated as the following, which is shown in Tables 1 to 9: [formula]
# In the Tables, “Intensity” indicated in the rightmost column is a value of the level of expressed mRNA of each gene in control cells as divided by the average level of the expressions of the whole genes.
structure (smiles),measurement,setting,value
"CCCCCCCCCCCCOS(=O)(=O)[O-].[Na+] [(18), sodium lauryl sulfate]","The level of expressed mRNA in the presence of chemical substance/ in its absence, gene YDL078C","yeast gene YDL078C, ratio of DNA chip fluorescence intensity to that without chemical substance",2.0
same,"The level of expressed mRNA in the presence of chemical substance/ (in its absence), gene YDL215C","yeast gene YDL215C, ratio of DNA chip fluorescence intensity to that without chemical substance",1.6
same,The level of expressed mRNA in the presence of chemical substance/The level of expressed mRNA in the absence of chemical substance,yeast gene YDL238C,1.3
same,The level of expressed mRNA in the presence of chemical substance/The level of expressed mRNA in the absence of chemical substance,yeast gene YDR055W,1.9
same,"The level of expressed mRNA in the presence of chemical substance/ (in its absence), gene YDR073W","yeast gene YDR073W, ratio of DNA chip fluorescence intensity to that without chemical substance",2.3
same,"The level of expressed mRNA in the presence of chemical substance/ in its absence, gene YDR079W","yeast gene YDR079W, energy system protein genes, 2 h culture with the chemical, ratio to control without chemical",1.3
same,"The level of expressed mRNA in the presence of chemical substance/ (ratio to absence), gene YDR079W","yeast gene YDR079W, mitochondria-located protein genes, 2 h culture with chemical",1.3
same,The level of expressed mRNA in the presence of chemical substance/The level of expressed mRNA in the absence of chemical substance,yeast gene YDR084C,1.3
same,The level of expressed mRNA in the presence of chemical substance/The level of expressed mRNA in the absence of chemical substance,yeast gene YDR085C,1.8
same,The level of expressed mRNA in the presence of chemical substance/The level of expressed mRNA in the absence of chemical substance,yeast gene YDR104C,1.0
same,The level of expressed mRNA in the presence of chemical substance/The level of expressed mRNA in the absence of chemical substance,yeast gene YDR115W,1.4
same,The level of expressed mRNA in the presence of chemical substance/The level of expressed mRNA in the absence of chemical substance,yeast gene YDR259C,0.8
same,"The level of expressed mRNA in the presence of chemical substance/ (in its absence), gene YDR297W","yeast gene YDR297W, ratio of DNA chip fluorescence intensity to that without chemical substance",1.9
same,The level of expressed mRNA in the presence of chemical substance/The level of expressed mRNA in the absence of chemical substance,yeast gene YDR315C,1.2
same,The level of expressed mRNA in the presence of chemical substance/The level of expressed mRNA in the absence of chemical substance,yeast gene YDR358W,1.9
same,"The level of expressed mRNA in the presence of chemical substance/ (ratio to absence), gene YDR377W","yeast gene YDR377W, mitochondria-located protein genes, 2 h culture with chemical",2.5
same,"The level of expressed mRNA in the presence of chemical substance/ (in its absence), gene YDR387C","yeast gene YDR387C, ratio of DNA chip fluorescence intensity to that without chemical substance",1.1
same,The level of expressed mRNA in the presence of chemical substance/The level of expressed mRNA in the absence of chemical substance,yeast gene YDR388W,1.3
same,The level of expressed mRNA in the presence of chemical substance/The level of expressed mRNA in the absence of chemical substance,yeast gene YDR432W,0.7
same,The level of expressed mRNA in the presence of chemical substance/The level of expressed mRNA in the absence of chemical substance,yeast gene YDR481C,1.4
same,The level of expressed mRNA in the presence of chemical substance/The level of expressed mRNA in the absence of chemical substance,yeast gene YDR510W,1.5
same,The level of expressed mRNA in the presence of chemical substance/ (ratio to absence of chemical substance),yeast gene YEL039C,1.1
same,The level of expressed mRNA in the presence of chemical substance/The level of expressed mRNA in the absence of chemical substance,yeast gene YEL042W,0.8
same,The level of expressed mRNA in the presence of chemical substance/The level of expressed mRNA in the absence of chemical substance,yeast gene YEL066W,1.1
same,"The level of expressed mRNA in the presence of chemical substance/ (in its absence), gene YER015W","yeast gene YER015W, ratio of DNA chip fluorescence intensity to that without chemical substance",2.6
same,The level of expressed mRNA in the presence of chemical substance/The level of expressed mRNA in the absence of chemical substance,yeast gene YER039C,1.1
same,The level of expressed mRNA in the presence of chemical substance/ (ratio to absence of chemical substance),yeast gene YER057C,1.8
same,The level of expressed mRNA in the presence of chemical substance/The level of expressed mRNA in the absence of chemical substance,yeast gene YER107C,1.2
same,The level of expressed mRNA in the presence of chemical substance/The level of expressed mRNA in the absence of chemical substance,yeast gene YER130C,2.5
same,The level of expressed mRNA in the presence of chemical substance/The level of expressed mRNA in the absence of chemical substance,yeast gene YFL028C,1.5
same,The level of expressed mRNA in the presence of chemical substance/The level of expressed mRNA in the absence of chemical substance,yeast gene YFL043C,1.2
same,"The level of expressed mRNA in the presence of chemical substance/ (in its absence), gene YGL035C","yeast gene YGL035C, ratio of DNA chip fluorescence intensity to that without chemical substance",1.2
same,"The level of expressed mRNA in the presence of chemical substance/ (in its absence), gene YGL115W","yeast gene YGL115W, ratio of DNA chip fluorescence intensity to that without chemical substance",1.2
same,The level of expressed mRNA in the presence of chemical substance/ (ratio to absence of chemical substance),yeast gene YGL115W,1.2
same,The level of expressed mRNA in the presence of chemical substance/The level of expressed mRNA in the absence of chemical substance,yeast gene YGL158W,1.1
same,"The level of expressed mRNA in the presence of chemical substance/ (ratio to absence), gene YGL187C","yeast gene YGL187C, mitochondria-located protein genes, 2 h culture with chemical",2.4
same,"The level of expressed mRNA in the presence of chemical substance/ (in its absence), gene YGL205W","yeast gene YGL205W, ratio of DNA chip fluorescence intensity to that without chemical substance",9.1
same,The level of expressed mRNA in the presence of chemical substance/The level of expressed mRNA in the absence of chemical substance,yeast gene YGL229C,0.9
same,"The level of expressed mRNA in the presence of chemical substance/ in its absence, gene YGR062C","yeast gene YGR062C, energy system protein genes, 2 h culture with the chemical, ratio to control without chemical",1.1
same,"The level of expressed mRNA in the presence of chemical substance/ (ratio to absence), gene YGR062C","yeast gene YGR062C, mitochondria-located protein genes, 2 h culture with chemical",1.1
same,"The level of expressed mRNA in the presence of chemical substance/ (in its absence), gene YGR096W","yeast gene YGR096W, ratio of DNA chip fluorescence intensity to that without chemical substance",1.0
same,The level of expressed mRNA in the presence of chemical substance/The level of expressed mRNA in the absence of chemical substance,yeast gene YGR136W,1.8
same,The level of expressed mRNA in the presence of chemical substance/The level of expressed mRNA in the absence of chemical substance,yeast gene YGR189C,1.7
same,The level of expressed mRNA in the presence of chemical substance/The level of expressed mRNA in the absence of chemical substance,yeast gene YGR213C,8.5
same,The level of expressed mRNA in the presence of chemical substance/The level of expressed mRNA in the absence of chemical substance,yeast gene YGR257C,1.3
same,"The level of expressed mRNA in the presence of chemical substance/ (in its absence), gene YGR287C","yeast gene YGR287C, ratio of DNA chip fluorescence intensity to that without chemical substance",1.1
same,"The level of expressed mRNA in the presence of chemical substance/ (in its absence), gene YGR288W","yeast gene YGR288W, ratio of DNA chip fluorescence intensity to that without chemical substance",1.3
same,The level of expressed mRNA in the presence of chemical substance/ (ratio to absence of chemical substance),yeast gene YHL028W,2.5
same,The level of expressed mRNA in the presence of chemical substance/ (ratio to absence of chemical substance),yeast gene YHL046C,0.9
same,The level of expressed mRNA in the presence of chemical substance/The level of expressed mRNA in the absence of chemical substance,yeast gene YHR004C,1.6
same,The level of expressed mRNA in the presence of chemical substance/The level of expressed mRNA in the absence of chemical substance,yeast gene YHR071W,1.0
same,The level of expressed mRNA in the presence of chemical substance/The level of expressed mRNA in the absence of chemical substance,yeast gene YHR139C,1.3
same,The level of expressed mRNA in the presence of chemical substance/The level of expressed mRNA in the absence of chemical substance,yeast gene YHR142W,1.3
same,"The level of expressed mRNA in the presence of chemical substance/ (in its absence), gene YHR210C","yeast gene YHR210C, ratio of DNA chip fluorescence intensity to that without chemical substance",1.2
same,"The level of expressed mRNA in the presence of chemical substance/ (in its absence), gene YIL006W","yeast gene YIL006W, ratio of DNA chip fluorescence intensity to that without chemical substance",0.9
same,The level of expressed mRNA in the presence of chemical substance/ (ratio to absence of chemical substance),yeast gene YIL011W,0.8
same,The level of expressed mRNA in the presence of chemical substance/The level of expressed mRNA in the absence of chemical substance,yeast gene YIL123W,1.0
